For 13 compounds, Ki results are on record in patent EP4434982A1, “(S)-2-(2-METHYLAZETIDIN-1-YL)PYRIMIDINE DERIVATIVE AND PHARMACEUTICAL COMPOSITION COMPRISING SAME” (LG Chem, Ltd., priority 2021, dated 2023).

The assay has as its target T1, Ketohexokinase (KHK) (Homo sapiens, UniProt P50053).
T1 construct: His tag; made in house; host or cells: E. coli
T1 sequence (P50053 1-298): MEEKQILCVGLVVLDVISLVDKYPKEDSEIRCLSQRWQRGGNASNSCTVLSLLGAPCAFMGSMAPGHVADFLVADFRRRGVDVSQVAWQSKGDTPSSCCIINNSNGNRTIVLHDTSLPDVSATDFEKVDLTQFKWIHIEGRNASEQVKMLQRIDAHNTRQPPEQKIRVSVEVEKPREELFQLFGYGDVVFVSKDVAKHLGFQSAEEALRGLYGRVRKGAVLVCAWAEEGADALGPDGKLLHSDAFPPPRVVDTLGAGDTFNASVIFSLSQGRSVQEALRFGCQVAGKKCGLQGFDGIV
Nature of the assay: measurement of activity in vitro of ketohexokinase inhibitor (Transcreener ADP2 TR-FRET Red Assay, ADP produced). Format: biochemical. The conditions noted are these: KHK pre-reacted with inhibitor 30 minutes, then substrate (ATP, fructose) 15 minutes; Ki by Morrison equation. The protocol: Ketohexokinase (KHK) was expressed in E. Coli and purified using His tag. In order to measure the activity of the purified KHK, Transcreener ADP2 TR-FRET Red Assay kit of BellBrook Labs was used. A method of measuring the amount of ADP produced was used using TR-FRET after reacting a solution including a suitable concentration of KHK protein and ATP, and fructose for 15 minutes. In order to see the activity of a ketohexokinase (KHK) inhibitor, ketohexokinase (KHK) and a suitable concentration of an inhibitor were reacted first for 30 minutes, and then, reacted with a solution including the substrate of ketohexokinase (KHK) for 15 minutes. Then, reaction for TR-FRET was performed for 1 hour, and fluorescence was measured using Envision equipment of PerkinElmer. According to the optimization procedure of TR-FRET published by BellBrook Lab, the set value of the Envision equipment was determined.
The result values by concentration of the ketohexokinase (KHK) inhibitor were determined as the ratio of a wavelength of 665 nm and a wavelength of 615nm. The 665/615 ratio value by concentration of each inhibitor was converted to ADP concentration based on ADP standard curve, and inhibition activity Ki value was obtained using Morrison equation by statistical software (Prizm). Meanwhile, the Ki value is a value representing the binding affinity of the inhibitor and an enzyme, and a lower value means better inhibitory activity.
(In general: In TR-FRET formats the signal depends on donor and acceptor labels being close together.)
The Ki is a measure of affinity in units of concentration, obtained from inhibition or displacement. High values mean weaker binding, low ones tighter binding. `C[C@H]1CCN1c1nc(-c2ccc(OCC(=O)N3CCNCC3)nc2)c2c(n1)C(F)(F)CC2` [Example 37] registered a Ki of at most 0.01 µM.

`C[C@H]1CCN1c1nc(N2CCN(CC(=O)N3CCNCC3)CC2)c2c(n1)C(F)(F)CC2` [Example 13, (S)-2-4-(7,7-difluoro-2-(2-methylazetidin-1-yl)-6,7-dihydro-5H-cyclopenta[d]pyrimidin-1-yl)-1-(piperazin-1-yl)ethan-1-one] gave a Ki of at most 0.01 µM.

`C[C@H]1CCN1c1nc(-c2ccc(OCC(=O)N3CCNCC3)c(F)c2)c2c(n1)C(F)(F)CC2` [Example 33] registered an inhibition constant (Ki) of 0.01 to 0.1 µM.

In turn, `C[C@H]1CCN1c1nc(N2CC[C@H](CC(=O)N3CCNCC3)C2)c2c(n1)C(F)(F)CC2` [Example 9] registered an inhibition constant Ki of at most 0.01 µM.

Consider `C[C@H]1CCN1c1nc(N2CC[C@@H](OCC(=O)N3CCNCC3)C2)c2c(n1)C(F)(F)CC2` [Example 8, 2-(((R)-1-(7,7-difluoro-2-((S)-2-methylazetidin-1-yl)-6,7-dihydro-5H-cyclopenta[d]pyrimidin-4-yl)pyrrolidin-3-yl)oxy)-1-(piperazin-1-yl)ethan-1-one], for which the Ki was at most 0.01 µM.

Compound `C[C@H]1CCN1c1nc(N2CCN(C(=O)CC(=O)N3CCNCC3)CC2)c2c(n1)C(F)(F)CC2` [Example 15] gave a Ki of at most 0.01 µM.

On to `C[C@H]1CCN1c1nc(-c2ccc(OCC(=O)N3CCNCC3)c(Cl)c2)c2c(n1)C(F)(F)CC2` [Example 35], for which the Ki was at most 0.01 µM.

`C[C@H]1CCN1c1nc(N2C[C@@H]3[C@@H](CC(=O)N4CCNC(=O)C4)[C@@H]3C2)c2c(n1)C(F)(F)CC2` [Example 20, 4-(2-((1R,5S,6R)-3-(7,7-difluoro-2-((S)-2-methylazetidin-1-yl)-6,7-dihydro-5H-cyclopenta[d]pyrimidin-4-yl)-3-azabicyclo[3.1.0]hexan-6-yl)acetyl)piperazin-2-one] had a Ki of at most 0.01 µM.

The compound `C[C@H]1CCN1c1nc(-c2ccc(OCC(=O)N3CCNCC3)cc2)c2c(n1)C(F)(F)CC2` [Example 32] showed a Ki of 0.01 to 0.1 µM.

For the compound `C[C@H]1CCN1c1nc(-c2ccc(OCC(=O)N3CCCNCC3)c(Cl)c2)c2c(n1)C(F)(F)CC2` [Example 36, (S)-2-(2-(chloro-4-(7,7-difluoro-2-(2-methylazetidin-1-yl)-6,7-dihydro-5H-cyclopenta[d]pyrimidin-4-yl)phenoxy)-1-(1,4-diazepan-1-yl)ethan-1-one)], the Ki is at most 0.01 µM.

On to `C[C@H]1CCN1c1nc(-c2cc(F)c(OCC(=O)N3CCNCC3)c(F)c2)c2c(n1)C(F)(F)CC2` [Example 34], for which the Ki was at most 0.01 µM.

For `C[C@H]1CCN1c1nc(-c2cnc(OCC(=O)N3CCNCC3)c(Cl)c2)c2c(n1)C(F)(F)CC2` [Example 38], the inhibition constant Ki is at most 0.01 µM.

`C[C@H]1CCN1c1nc(N2CC(OCC(=O)N3CCNCC3)C2)cc(C(F)(F)F)n1` [Example 1, (S)-2-((1-(2-(2-methylazetidin-1-yl)-6-(trifluoromethyl)pyrimidin-4-yl)azetidin-3-yl)oxy)-1-(piperazin-1-yl)ethan-1-one] returned a Ki of 0.01 to 0.1 µM.
